Here are results for 5 compounds from patent US6537797B1, “Compositions and methods useful in bioremediation of polychlorinated biphenyls” (Indiana University, Advanced Research and Technology …, priority 1999, dated 2003).

Assay type in all cases: cell-based
The subject of assay [1] is bacterial strain SK-3. Briefly: Growth substrate tests in liquid medium. As to conditions: initial concentration 100 parts per million, except chlorobenzoate 2-3 millimolar. The method, then: (§1) The ability of the four isolated strains to grow on selected polychlorobiphenyls as a sole carbon source was assessed.
(§2) (All tests were conducted in a liquid medium. The initial concentration of the organic substrate was 100 parts per million, except chlorobenzoate, which was 2-3 millimolar).

Another assay has as its system bacterial strain SK-4. Briefly: Growth substrate tests in liquid medium. As to conditions: initial concentration 100 parts per million, except chlorobenzoate 2-3 millimolar. As to the method:
as §1, §2

Assay [2] relates to bacterial strain SK-1. Put plainly: Growth substrate tests in liquid medium. As to conditions: initial concentration 100 parts per million, except chlorobenzoate 2-3 millimolar. As to the method:
as §1, §2

For assay [3], the system named is bacterial strain SK-2. Briefly: Growth substrate tests in liquid medium. The following applies: initial concentration 100 parts per million, except chlorobenzoate 2-3 millimolar. The method, then: as §1, §2
For assay [4], the system named is bacterial strain SK-2. Briefly: Growth of SK-2 on 3,4-DCBP as sole carbon source and its degradation. As to the method:
(§3) Growth of bacterial strains SK-1 and SK-2 on 2,3-DCBP and 3,4-DCBP, respectively, as a sole carbon source was determined using direct counting and an acridine orange staining method. This method involves filtering 0.1 milliliters of culture through a 0.45 micron filter, staining the cells on the filter using a 0.01% acridine orange solution for 3 to 5 minutes, and counting cells on the filter using an epifluorescent microscope at a 1000′ magnification. SK-1+ contained 2,3-dichlorobiphenyl; SK-2+ contained 3,4-dichlorobiphenyl. Control bottles in each case were identical to experimental bottles in that they were inoculated with the cultures but they lacked the appropriate congener. The initial concentration of PCBs was 500 ppm (w/v). The cell numbers of the two isolates increased by 1.5 orders of magnitude in the presence of the DCBPs used as a growth substrate. The degradation of 2,3-DCBP by SK-1 and production of 2,3-dichlorobenzoate is depicted in FIG. 3. The degradation of 3,4-DCBP by SK-2 and production of 3,4-dichlorobenzoate is depicted in FIG. 4.
(§4) The concentrations of chlorobenzoates and dichlorobiphenyls were assessed after hexane extraction of bottles using gas chromatography analysis of the extracts with an electron capture detector. Chlorobenzoates were analyzed using standard columns after derivitization with pentafluorobenzyl bromide. Dichlorobiphenyls were analyzed using a DB-5 column (J&W Scientific, Fulsom, Calif.).
(§5) The data shown in FIGS. 2, 3 and 4 illustrates the nearly complete disappearance of both 2,3-DCBP (0.38 mM initial concentration, FIG. 3) and 3,4-DCBP (0.3 mM initial concentration, FIG. 4) within 10 days of incubation. Duplicate bottles were used and error bars of the pictures represent a standard deviation. Controls contained DCBPs but lacked inoculum. DCBPs were supplied in the bottles using the non-biodegradable carrier heptamethylnonane (HMN).

Assay [5] has as its system bacterial strain SK-1. Briefly: Growth of SK-1 on 2,3-DCBP as sole carbon source and its degradation. The method, then: as §3, §4, §5
For assay [6], the system named is bacterial strain SK-3. Briefly: Biodegradation of commercial PCB mixture Aroclor 1242 as sole carbon source. The following applies: 12 days; benzoate-grown washed cells; no cosubstrate; GC. The method, then: In addition to testing the ability to use a single PCB congener as a sole carbon source (as described in Example 1), several strains of the isolated bacteria of the invention (SK-1, SK-2, SK-3 and SK-4) were tested for the ability to degrade low chlorinated PCB congeners (dichlorobiphenyls and trichlorobiphenyls) of a commercial PCB mixture in the absence of biphenyl or any other cometabolic substrate as a carbon source.
The ability of SK-1, SK-2, SK-3 and SK-4 to degrade Aroclor® 1242 was assessed using cells which were grown on benzoate and then washed. Briefly, the cells were washed by centrifuging the cells, decanting the supernatant, resuspending the cells in fresh medium, then pelleting the cells using centrifugation again and decanting the supernatant to remove residual benzoate and other carbon sources. Aroclor® 1242 was the sole carbon source provided to the cells.
The degradation of Aroclor® 1242 by SK-3 was monitored using gas is chromatography analysis and the results are depicted in FIG. 12. […] The degraded PCB congeners were identified as follows: Peak #1 was 2,5-DCBP or 2,4-DCBP; Peak #2 was 2,3′-DCBP; and Peak #3 was 2,4′-DCBP. No significant degradation of any PCB congener containing three or more chlorine atoms was observed.

Assay [7] deals with consortia of bacterial strains from PCB-contaminated tertiary lagoon sludge. Briefly: Degradation of selected PCB congeners in aerobic enrichment cultures. The following applies: 100 ppm (w/v) mixture of five PCB congeners, with or without biphenyl cosubstrate; hexane extraction 45 days after inoculation, GC. From the text: A consortia of bacterial strains was isolated from tertiary lagoon sludge that was contaminated with PCBs for over twenty five years. The sludge was collected from the Winston-Thomas sewage treatment plant in Bloomington, Ind. PCB-degrading strains were enriched using a minimal medium comprising a 100 ppm (w/v) mixture of the following five PCB congeners as the carbon source: 2,3-dichlorobiphenyl (DCBP), 2,4,4′-trichlorobiphenyl (TCBP), 2,4,6-trichlorobiphenyl, 2,2′,5,5′-tetrachlorobiphenyl, and 2,2′,4,4′,5,5′-hexachlorobiphenyl. Biphenyl was also added to the medium in some samples as an additional carbon source to stimulate the cometabolism of biphenyl and the PCBs. About 30-35 milliliters of the medium was inoculated with 5-10 milliliters of PCB-contaminated sludge and incubated in 160-mL serum bottles sealed with Teflon-coated stoppers. The bottles were incubated horizontally on a shaker table at room temperature. The headspace in the bottles was purged with air once a week to maintain aerobic conditions. Every 4-6 weeks, 10% of the culture was transferred to fresh medium. […] The concentrations of the PCB congeners were determined by extracting bottles with hexane 45 days after inoculation (a single bottle extraction), and analyzing hexane extracts by gas chromatography using a DB-5 column (J&W Scientific, Folsum, Calif.) and an electron capture detector. The results from this analysis are depicted in FIG. 1.

Take `Clc1ccc(-c2ccccc2)cc1Cl` [3,4-DCBP, 3,4-dichlorobiphenyl]: in the assay with bacterial strain SK-3 [1], the “Growth of SK-3 on the substrate as sole carbon source” value (from here on “Growth of SK-3 on the substrate”) was “No”. Besides, the “Growth of SK-4 on the substrate as sole carbon source” value (from here on “Growth of SK-4 on the substrate”) with bacterial strain SK-4 is “No”. Moreover, the “Growth of SK-1 on the substrate as sole carbon source” value (from here on “Growth of SK-1 on the substrate”) with bacterial strain SK-1 [2] is on record as “No”. Moreover, in the assay with bacterial strain SK-2 [3], the “Growth of SK-2 on the substrate as sole carbon source” value (“Growth of SK-2 on the substrate” for short) is “exhibited growth and Yes”. Further, the “Time to nearly complete disappearance” value in the assay on bacterial strain SK-2 [4] (SK-2, 0.3 mM initial concentration, supplied in heptamethylnonane) is on record as at most 10 days. Besides, in the assay with bacterial strain SK-2 [4] (SK-2, initial concentration 500 ppm (w/v), acridine orange direct counting), the “Increase of cell numbers in the presence of the DCBP as growth substrate” value is 1.5 orders of magnitude.

In the case of `O=C(O)c1cccc(Cl)c1Cl` [2,3-dichlorobenzoate], the “Growth of SK-3 on the substrate” value in the assay with bacterial strain SK-3 [1] was “No”. Moreover, in the assay on bacterial strain SK-4, the “Growth of SK-4 on the substrate” value is “No”. The “Growth of SK-1 on the substrate” value in the assay on bacterial strain SK-1 [2] is given as “No”. Further, the “Growth of SK-2 on the substrate” value with bacterial strain SK-2 [3] is “No”. Further, the “Production of chlorobenzoate from 2,3-DCBP by SK-1” value in the assay with bacterial strain SK-1 [5] (0.38 mM 2,3-DCBP initial concentration) is on record as “almost stoichiometric”.

In the case of `Clc1cccc(-c2ccccc2Cl)c1` [2,3′-DCBP], the “Growth of SK-3 on the substrate” value with bacterial strain SK-3 [1] is reported as “No”. For the same compound, the “Growth of SK-4 on the substrate” value in the assay on bacterial strain SK-4 was “No”. The “Growth of SK-1 on the substrate” value in the assay on bacterial strain SK-1 [2] was “No”. Also, in the assay on bacterial strain SK-2 [3], the “Growth of SK-2 on the substrate” value is reported as “No”. The “Degradation of PCB congeners of Aroclor 1242 by SK-3” value with bacterial strain SK-3 [6] is reported as “degraded”.

On to `O=C(O)c1ccc(Cl)c(Cl)c1` [3,4-dichlorobenzoate], for which the “Growth of SK-3 on the substrate” value in the assay with bacterial strain SK-3 [1] is recorded as “No”. Besides, in the assay on bacterial strain SK-4, the “Growth of SK-4 on the substrate” value was “No”. In addition, in the assay on bacterial strain SK-2 [4] (0.3 mM 3,4-DCBP initial concentration), the “Time at which concentration of chlorobenzoate produced from 3,4-DCBP by SK-2 reached a maximum, then decreased” value came to 90 h.

As to `Clc1cccc(-c2ccccc2)c1Cl` [2,3-DCBP, 2,3-dichlorobiphenyl], the “Growth of SK-3 on the substrate” value with bacterial strain SK-3 [1] is reported as “No”. Also, the “Growth of SK-4 on the substrate” value with bacterial strain SK-4 is “No”. Further, in the assay on bacterial strain SK-1 [2], the “Growth of SK-1 on the substrate” value is “exhibited growth and Yes”. For the same compound, in the assay on bacterial strain SK-2 [3], the “Growth of SK-2 on the substrate” value is “No”. The “Degradation of PCB congener in aerobic enrichment cultures” value in assay [7] is on record as “degraded in bottles which lacked a cometabolic substrate”. For the same compound, the “Time to nearly complete disappearance” value with bacterial strain SK-1 [5] (SK-1, 0.38 mM initial concentration, supplied in heptamethylnonane) is at most 10 days. For the same compound, the “Increase of cell numbers in the presence of the DCBP as growth substrate” value with bacterial strain SK-1 [5] (SK-1, initial concentration 500 ppm (w/v), acridine orange direct counting) is 1.5 orders of magnitude.
